Results: patent US6759416B2, “Anticancer conjugates of camptothecin and unsaturated fatty acids” (priority 2002, dated 2004)
Read-outs that look alike come from different tables or passages of the source.

Experiments:
L1210 leukemia cells = assay: Anticancer activity assay in vitro: 48-h 3H-thymidine incorporation (proliferation) assay; type: cell-based, murine; settings: for IC50: L1210 leukemia cells, 48-h proliferation assay, 3H-thymidine uptake, mean of three experiments; for DNA fragmentation / apoptosis: L1210 cells, data not shown
Description: L1210 leukemia cells (2.5×10^4cells/well) in RPMI-1640 medium supplemented with 10% FCS medium were seeded in a 96-well plate. Drugs (10 μL) at increasing concentrations were added to each well, and the total volume was adjusted to 0.1 mL/well using the same medium. HCPT was used as a positive control. The plate was incubated for 24 h at 37° C. followed by addition of 10 μL of ^3H-thymidine (20 μCi/mL). The plate was incubated for another 24 h. The cells were harvested, and radioactivity was counted using the Packard Matrix 96 beta counter. The results were expressed as the minimal concentration that inhibits ^3H-thymidine incorporation by 50% (IC50). Percent growth inhibition was calculated as follows: [(total cpm—experimental cpm)/total cpm]×100. […] Doxorubicin (Dox) was used as a positive control.

Lewis lung carcinoma = assay: Antitumor activity against Lewis lung carcinoma in mice; type: in vivo
Description: For example, at a dose of 120 mg/kg, it inhibited tumor growth by 83% while the bodyweight loss was only 10%. The parent HCPT inhibited tumor growth by 57% at a dose of 20 mg/kg with a 24% weight loss. The group treated with DHA-HCPT also lived longer.

colon 38 carcinoma = assay: Antitumor activity against colon 38 carcinoma in mice (single dose, early stage and late stage); type: in vivo; settings: for weight loss: stated as loss
From the text: However, DHA-HCPT (weight loss of 16%) is less toxic than cisplatin (weight loss of 20%).
The first experiment was designed to evaluate the antitumor activity of the drugs against early tumor, i.e., the tumors were transplanted on day 0, and the drugs were given beginning the next day. The second experiment was designed to evaluate the drug's activity against the established tumor, i.e., the tumors were transplanted on day 0, and the drugs were given when the tumors grew to 3-4 mm in size.
In the late tumor model, at a dose of 100 mg/kg, DHA-HCPT inhibited tumor growth by 80% (Table 10).

L1210 leukemia = test system: L1210 leukemia
Description: The compounds were tested in male BDF1 mice (18-22 g, 6 mice/group) bearing L1210 leukemia cells. Tumor lines were propagated in DBA/2 female mice with cell (10^5 cells/mouse) transfer every 7 days. Diluted ascitic fluid (0.1 mL) containing 10^5 leukemia cells were inoculated, i.p. in mice on day 0. Mice were injected with 0.1 mL of drug preparation.
A conjugate of HCPT and piperidinopiperidine, PP-HCPT, was synthesized, and its antitumor activity was evaluated against L1210 leukemia in mice.
DHA-HCPT was also tested using multiple doses (days 1, 5 and 9).

[1] = 5 mg/kg i.p. on days 1, 5, and 9
[2] = L1210, 48-h cell growth inhibition assay
[3] = 120 mg/kg i.p. on days 1, 5 and 9
[4] = 100 mg/kg i.p. on days 1, 5, and 9
[5] = early stage, 67 mg/kg i.p. on days 1, 5 and 9
[6] = early stage, 100 mg/kg i.p. on days 1, 5 and 9
[7] = late stage, 100 mg/kg i.p. on days 9, 13 and 17
[8] = 125 mg/kg i.p. on days 1, 5 and 9
[9] = 150 mg/kg i.p. on days 1, 5 and 9

SMILES: COc1cccc2c1C(=O)c1c(O)c3c(c(O)c1C2=O)C[C@@](O)(C(=O)CO)C[C@@H]3O[C@H]1C[C@H](N)[C@H](O)[C@H](C)O1 [Dox, Doxorubicin, reference compound]
- IC50 (L1210 leukemia cells; Mus musculus): 180 ± 90 nM

SMILES: N.N.[Cl][Pt][Cl] [Cisplatin, reference compound]
- % TGI (Lewis lung carcinoma; [1]): 73%
- % Weight change (Lewis lung carcinoma; [1]): −19%
- Tumor weight (g ± SD) (Lewis lung carcinoma; 5 mg/kg i.p. on days 1, 5, and 9, control 1.20 ± 0.61): 0.32 ± 0.17 g
- % TGI (colon 38 carcinoma; 10 mg/kg i.p. on day 1): 88%
- % Weight change (colon 38 carcinoma; 10 mg/kg i.p. on day 1): −20%
- Tumor weight (g ± SD) (colon 38 carcinoma; 10 mg/kg i.p. on day 1, control 1.20 ± 0.84): 0.14 ± 0.07 g
- weight loss (colon 38 carcinoma; given once (10 mg/kg per Table 8)): 20%

SMILES: CC/C=C\C/C=C\C/C=C\C/C=C\C/C=C\C/C=C\CCC(=O)Nc1ccc(CN2CCN(C(=O)Oc3ccc4nc5c(cc4c3)Cn3c-5cc4c(c3=O)COC(=O)[C@]4(O)CC)CC2)cc1 (stereo in doubt) [DHA-HCPT, 10-[4-[[4-(cis-4,7,10,13,16,19-Docosahexenoyl)amino]benzyl]-1-piperazino]carbonyl-oxycamptothecin]
- fold less potent than HCPT (IC50) (L1210 leukemia cells; [2]): 8 fold
- DNA fragmentation / apoptosis (L1210 leukemia cells): caused DNA fragmentation and cells died by apoptosis
- IC50 (L1210 leukemia cells): 1800 nM
- % ILS (L1210 leukemia; 40 mg/kg i.p. on day 1): 108%
- % Weight change (L1210 leukemia; 40 mg/kg i.p. on day 1): 2%
- 30-day survivors (L1210 leukemia; 40 mg/kg i.p. on day 1, 6 mice/group): 0
- % ILS (L1210 leukemia; 60 mg/kg i.p. on day 1): 138%
- % Weight change (L1210 leukemia; 60 mg/kg i.p. on day 1): 1%
- 30-day survivors (L1210 leukemia; 60 mg/kg i.p. on day 1, 6 mice/group): 0
- % ILS (L1210 leukemia; [3]): 323%
- % Weight change (L1210 leukemia; [3]): −12%
- % ILS (L1210 leukemia; 180 mg/kg i.p. on day 1): 154%
- % Weight change (L1210 leukemia; 180 mg/kg i.p. on day 1): −12%
- % ILS (Lewis lung carcinoma; 80 mg/kg i.p. on day 1): 23%
- % TGI (Lewis lung carcinoma; 80 mg/kg i.p. on day 1): 48%
- % Weight change (Lewis lung carcinoma; 80 mg/kg i.p. on day 1): −5%
- Tumor weight (g ± SD) (Lewis lung carcinoma; 80 mg/kg i.p. on day 1, control 1.77 ± 0.89): 0.93 ± 0.53 g
- % TGI (Lewis lung carcinoma; [4]): 88%
- % Weight change (Lewis lung carcinoma; [4]): −9%
- Tumor weight (g ± SD) (Lewis lung carcinoma; 100 mg/kg i.p. on days 1, 5, and 9, control 1.20 ± 0.61): 0.15 ± 0.10 g
- % ILS (Lewis lung carcinoma; 120 mg/kg i.p. on day 1): 33%
- % TGI (Lewis lung carcinoma; 120 mg/kg i.p. on day 1): 83%
- % Weight change (Lewis lung carcinoma; 120 mg/kg i.p. on day 1): −10%
- Tumor weight (g ± SD) (Lewis lung carcinoma; 120 mg/kg i.p. on day 1, control 1.77 ± 0.89): 0.31 ± 0.18 g
- cures (Lewis lung carcinoma; 120 mg/kg, multiple doses (days 1, 5, and 9)): 50%
- bodyweight loss (Lewis lung carcinoma; 120 mg/kg, one dose i.p., stated as loss): 10%
- weight loss (colon 38 carcinoma; 120 mg/kg given once): 16%
- % TGI (colon 38 carcinoma; 120 mg/kg i.p. on day 1): 91%
- % Weight change (colon 38 carcinoma; 120 mg/kg i.p. on day 1): −16%
- Tumor weight (g ± SD) (colon 38 carcinoma; 120 mg/kg i.p. on day 1, control 1.20 ± 0.84): 0.11 ± 0.09 g
- % TGI (colon 38 carcinoma; [5]): 43%
- % Weight change (colon 38 carcinoma; [5]): −10%
- Tumor weight (g ± SD) (colon 38 carcinoma; early stage, 67 mg/kg i.p. on days 1, 5 and 9, control 1.13 ± 0.39): 0.64 ± 0.50 g
- % TGI (colon 38 carcinoma; [6]): 78%
- % Weight change (colon 38 carcinoma; [6]): −12%
- Tumor weight (g ± SD) (colon 38 carcinoma; early stage, 100 mg/kg i.p. on days 1, 5 and 9, control 1.13 ± 0.39): 0.25 ± 0.22 g
- % TGI (colon 38 carcinoma; early stage, 150 mg/kg i.p. on days 1 and 5): 84%
- Tumor weight (g ± SD) (colon 38 carcinoma; early stage, 150 mg/kg i.p. on days 1 and 5, control 1.13 ± 0.39): 0.18 ± 0.12 g
- % TGI (colon 38 carcinoma; [7]): 80%
- % Weight change (colon 38 carcinoma; [7]): −14%
- Tumor weight (g ± SD) (colon 38 carcinoma; late stage, 100 mg/kg i.p. on days 9, 13 and 17, control 1.13 ± 0.39): 0.22 ± 0.14 g
- % TGI (colon 38 carcinoma; late stage, 150 mg/kg i.p. on days 9 and 13): 79%
- Tumor weight (g ± SD) (colon 38 carcinoma; late stage, 150 mg/kg i.p. on days 9 and 13, control 1.13 ± 0.39): 0.24 ± 0.18 g

SMILES: CC[C@@]1(O)C(=O)OCc2c1cc1n(c2=O)Cc2cc3cc(O)ccc3nc2-1 [HCPT, 10-hydroxycamptothecin, reference compound]
- DNA fragmentation / apoptosis (L1210 leukemia cells): caused DNA fragmentation and cells died by apoptosis
- IC50 (L1210 leukemia cells): 230 nM
- % ILS (L1210 leukemia; 15 mg/kg i.p. on day 1): 77%
- % Weight change (L1210 leukemia; 15 mg/kg i.p. on day 1): −10%
- bodyweight loss (L1210 leukemia; 15 mg/kg, one dose, stated as loss): 10%
- % ILS (L1210 leukemia; 20 mg/kg i.p. on day 1): 108%
- 30-day survivors (L1210 leukemia; 20 mg/kg i.p. on day 1, 6 mice/group): 0
- % Weight change (L1210 leukemia; 20 mg/kg i.p. on day 1, BDF1 mice, day 0 to lightest weight): −16%
- % ILS (Lewis lung carcinoma; 20 mg/kg i.p. on day 1): 16%
- % TGI (Lewis lung carcinoma; 20 mg/kg i.p. on day 1): 57%
- % Weight change (Lewis lung carcinoma; 20 mg/kg i.p. on day 1): −24%
- Tumor weight (g ± SD) (Lewis lung carcinoma; 20 mg/kg i.p. on day 1, control 1.77 ± 0.89): 0.76 ± 0.59 g
- weight loss (Lewis lung carcinoma; 20 mg/kg, one dose i.p., stated as loss): 24%

SMILES: O=P1(N(CCCl)CCCl)NCCCO1 (stereo not drawn) [Cyclophosphamide, reference compound]
- % ILS (L1210 leukemia; [8]): 173%
- % Weight change (L1210 leukemia; [8]): −15%
- 30-day survivors (cures) (L1210 leukemia; 125 mg/kg i.p. on days 1, 5 and 9, 6 mice/group): 0
- % ILS (L1210 leukemia; 200 mg/kg i.p. on day 1): 123%
- % Weight change (L1210 leukemia; 200 mg/kg i.p. on day 1): −9%
- 30-day survivors (L1210 leukemia; 200 mg/kg i.p. on day 1, 6 mice/group): 0

SMILES: CC[C@@]1(O)C(=O)OCc2c1cc1n(c2=O)Cc2cc3cc(OC(=O)N4CCC(N5CCCCC5)CC4)ccc3nc2-1 [PP-HCPT, 10-[4-(1-Piperidino)-1-piperidino]carbonyloxycamptothecin]
- fold less potent than DHA-HCPT (IC50) (L1210 leukemia cells; [2]): 16 fold
- fold less potent than HCPT (IC50) (L1210 leukemia cells; [2]): 128 fold
- IC50 (L1210 leukemia cells): 30000 nM
- % ILS (L1210 leukemia; 37 mg/kg i.p. on day 1): 46%
- % Weight change (L1210 leukemia; 37 mg/kg i.p. on day 1): 5%
- 30-day survivors (L1210 leukemia; 37 mg/kg i.p. on day 1, 6 mice/group): 0
- % ILS (L1210 leukemia; 73 mg/kg i.p. on day 1): 77%
- % Weight change (L1210 leukemia; 73 mg/kg i.p. on day 1): 2%
- 30-day survivors (L1210 leukemia; 73 mg/kg i.p. on day 1, 6 mice/group): 0
- % ILS (L1210 leukemia; [9]): 123%
- % Weight change (L1210 leukemia; [9]): −18%
